{
  "source": "patent US12662489B2",
  "about": "(Sitryx Therapeutics Limited, priority 2023, dated 2026)",
  "key": {"[1]": {"molecular_target": "T1, MTHFD2 recombinant human enzyme (Homo sapiens, UniProt P13995)", "T1 sequence (P13995 36-350)": "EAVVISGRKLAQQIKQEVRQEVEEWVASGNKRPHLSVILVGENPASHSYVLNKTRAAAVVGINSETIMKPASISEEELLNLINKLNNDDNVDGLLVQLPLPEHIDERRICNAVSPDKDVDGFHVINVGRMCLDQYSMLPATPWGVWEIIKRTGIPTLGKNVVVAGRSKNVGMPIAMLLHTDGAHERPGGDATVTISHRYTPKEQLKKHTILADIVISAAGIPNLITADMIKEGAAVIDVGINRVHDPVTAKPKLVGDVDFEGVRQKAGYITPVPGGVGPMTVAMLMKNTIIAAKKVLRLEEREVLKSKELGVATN", "assay": "MTHFD2 inhibition assay (NAD(P)H-Glo luminescence)", "settings": "for MTHFD1/MTHFD2 IC50 ratio: selectivity of MTHFD2 inhibition over MTHFD1, band"}, "[2]": {"molecular_target": "T2, MTHFD1 recombinant human enzyme (Homo sapiens, UniProt P11586)", "T2 sequence (P11586 2-291 limits assumed)": "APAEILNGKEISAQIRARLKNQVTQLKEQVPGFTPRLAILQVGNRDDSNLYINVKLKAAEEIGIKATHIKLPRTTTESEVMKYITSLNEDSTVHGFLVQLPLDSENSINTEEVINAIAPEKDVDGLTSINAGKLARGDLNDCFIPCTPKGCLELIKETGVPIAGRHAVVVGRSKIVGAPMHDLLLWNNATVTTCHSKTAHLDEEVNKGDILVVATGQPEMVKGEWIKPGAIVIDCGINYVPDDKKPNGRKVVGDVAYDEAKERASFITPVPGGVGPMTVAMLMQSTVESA", "assay": "MTHFD1 inhibition assay (NAD(P)H-Glo luminescence)", "settings": "MTHFD1 IC50, recombinant human enzyme 200 nM, NADP, band"}, "[3]": {"tested_on": "human CD4+ T cells", "assay": "Human CD4+ T-cell proliferation assay (CFSE, CD3/28 beads)", "settings": "read-out: Proliferation IC50", "description": "Cells were incubated at room temperature for 8 minutes in a rotator in the dark. 13 mL cRPMI was added to each tube and cells were centrifuged at 500×g for 4 minutes at room temperature before pellets were resuspended in 10 mL cRPMI. Cells were counted using the Auto2000 Cellometer and AO/PI viability stain and concentration adjusted to 0.6×10^6 cells/mL in cRPMI. […] Control wells were included for flow cytometry and edge wells were filled with 200 μL 1×dPBS. Cells were incubated at 37° C., 5% CO2 for 2 days before compound treatment. […] Cells were incubated at 37° C., 5% CO2 for a further 2 days prior to flow staining and supernatant harvest.\nOn the final day plates were centrifuged at 500×g for 4 minutes at room temperature. 125 μL of supernatants were transferred to a V bottom 96 well polystyrene plate and stored at −80° C. Plates were gently vortexed to disrupt the cell pellets before 125 μL 1×PBS was added to each well. Plates were centrifuged at 500×g for 4 minutes at room temperature and supernatants removed from the plates by aspirating. Plates were gently vortexed and 30 μL of live/dead stain (Invitrogen, L34975) in 1×dPBS was added and incubated for 15 minutes in the dark at 4° C. […] 100 μL of flow cytometry buffer was added and plates were centrifuged at 500×g for 4 minutes before supernatants were aspirated from the plates. Wells were resuspended in 200 μL flow cytometry buffer and plates stored at 4° C. before being run on the flow cytometer.\nData was analysed using FlowJo and the compensation matrix applied to all samples. The gates were set using unstained and unstimulated samples."}},
  "data": [
    {"compound": "CCOc1cc(C(=O)N2CCc3c(c(=O)oc4c(C)c(N5CCN(C)[C@@H](COC)C5)cc(C)c34)C2)c(F)cc1C(=O)NS(=O)(=O)N1CCC(C)(C)C1", "note": "[Example 217, (R)-N-((3,3-dimethylpyrrolidin-1-yl)sulfonyl)-2-ethoxy-5-fluoro-4-(8-(3-(methoxymethyl)-4-methylpiperazin-1-yl)-7,10-dimethyl-5-oxo-1,3,4,5-tetrahydro-2H-chromeno[3,4-c]pyridine-3-carbonyl)benzamide]", "values": [
      {"measurement": "IC50", "setting": "[1]", "result": "10 to 100", "unit": "nM"},
      {"measurement": "MTHFD1/MTHFD2 IC50 ratio", "setting": "[1]", "result": "G (^ 3 to 9.0)"},
      {"measurement": "IC50", "setting": "[2]", "result": "100 to 1000", "unit": "nM"},
      {"measurement": "IC50", "setting": "[3]", "result": "10 to 30", "unit": "nM"}
    ]},
    {"compound": "[2H]C([2H])([2H])Oc1cc(C(=O)N2CCc3c(c(=O)oc4c(C)c(N5CCN(C)[C@@H](COC)C5)cc(C)c34)C2)c(F)cc1C(=O)NS(=O)(=O)N1CC2CC2C1", "note": "(stereo partly drawn) [Example 251, N-((3-azabicyclo[3.1.0]hexan-3-yl)sulfonyl)-5-fluoro-2-(methoxy-d3)-4-(8-((R)-3-(methoxymethyl)-4-methylpiperazin-1-yl)-7,10-dimethyl-5-oxo-1,3,4,5-tetrahydro-2H-chromeno[3,4-c]pyridine-3-carbonyl)benzamide]", "values": [
      {"measurement": "IC50", "setting": "[1]", "result": "1 to 10", "unit": "nM"},
      {"measurement": "MTHFD1/MTHFD2 IC50 ratio", "setting": "[1]", "result": "J (>30)"},
      {"measurement": "IC50", "setting": "[2]", "result": "100 to 1000", "unit": "nM"},
      {"measurement": "IC50", "setting": "[3]", "result": "30 to 100", "unit": "nM"}
    ]},
    {"compound": "CCOc1cc(C(=O)N2CCc3c(c(=O)oc4c(C)c(N5CCN(C)[C@@H](COC)C5)cc(Cl)c34)C2)c(F)cc1C(=O)NS(=O)(=O)N1CCCC1", "note": "[Example 259, (R)-4-(10-chloro-8-(3-(methoxymethyl)-4-methylpiperazin-1-yl)-7-methyl-5-oxo-1,3,4,5-tetrahydro-2H-chromeno[3,4-c]pyridine-3-carbonyl)-2-ethoxy-5-fluoro-N-(pyrrolidin-1-ylsulfonyl)benzamide]", "values": [
      {"measurement": "IC50", "setting": "[1]", "result": "1 to 10", "unit": "nM"},
      {"measurement": "MTHFD1/MTHFD2 IC50 ratio", "setting": "[1]", "result": "J (>30)"},
      {"measurement": "IC50", "setting": "[2]", "result": "100 to 1000", "unit": "nM"},
      {"measurement": "IC50", "setting": "[3]", "result": "30 to 100", "unit": "nM"}
    ]},
    {"compound": "CNc1cc(C(=O)N2CCc3c(c(=O)oc4c(C)c(N5CCN(C)[C@@H](COC)C5)cc(C)c34)C2)c(F)cc1C(=O)NS(=O)(=O)N1CCCC1", "note": "[Example 201, (R)-5-fluoro-4-(8-(3-(methoxymethyl)-4-methylpiperazin-1-yl)-7,10-dimethyl-5-oxo-1,3,4,5-tetrahydro-2H-chromeno[3,4-c]pyridine-3-carbonyl)-2-(methylamino)-N-(pyrrolidin-1-ylsulfonyl)benzamide]", "values": [
      {"measurement": "IC50", "setting": "[1]", "result": "10 to 100", "unit": "nM"},
      {"measurement": "MTHFD1/MTHFD2 IC50 ratio", "setting": "[1]", "result": "J (>30)"},
      {"measurement": "IC50", "setting": "[2]", "result": "1000 to 5000", "unit": "nM"},
      {"measurement": "IC50", "setting": "[3]", "result": "100 to 1000", "unit": "nM"}
    ]},
    {"compound": "COC[C@H]1CN(c2cc(C)c3c4c(c(=O)oc3c2C)CN(C(=O)c2ccc(C(=O)NS(=O)(=O)N3CCCC3)c(OC)c2F)CC4)CCN1C", "note": "[Example 135, (R)-3-fluoro-2-methoxy-4-(8-(3-(methoxymethyl)-4-methylpiperazin-1-yl)-7,10-dimethyl-5-oxo-1,3,4,5-tetrahydro-2H-chromeno[3,4-c]pyridine-3-carbonyl)-N-(pyrrolidin-1-ylsulfonyl)benzamide]", "values": [
      {"measurement": "IC50", "setting": "[1]", "result": "1 to 10", "unit": "nM"},
      {"measurement": "MTHFD1/MTHFD2 IC50 ratio", "setting": "[1]", "result": "G (^ 3 to 9.0)"},
      {"measurement": "IC50", "setting": "[2]", "result": "10 to 100", "unit": "nM"},
      {"measurement": "IC50", "setting": "[3]", "result": "10 to 30", "unit": "nM"}
    ]},
    {"compound": "COC[C@H]1CN(c2cc(C)c3c4c(c(=O)oc3c2C)CN(C(=O)c2cc(OC3CCCC3)c(C(=O)NS(=O)(=O)C3(C)CC3)c(C(F)(F)F)c2)CC4)CCN1C", "note": "[Example 128, (R)-2-(cyclopentyloxy)-4-(8-(3-(methoxymethyl)-4-methylpiperazin-1-yl)-7,10-dimethyl-5-oxo-1,3,4,5-tetrahydro-2H-chromeno[3,4-c]pyridine-3-carbonyl)-N-((1-methylcyclopropyl)sulfonyl)-6-(trifluoromethyl)benzamide]", "values": [
      {"measurement": "IC50", "setting": "[1]", "result": "10 to 100", "unit": "nM"},
      {"measurement": "MTHFD1/MTHFD2 IC50 ratio", "setting": "[1]", "result": "H (>9.0 to 30)"},
      {"measurement": "IC50", "setting": "[2]", "result": "1000 to 5000", "unit": "nM"},
      {"measurement": "IC50", "setting": "[3]", "result": "1000 to 5000", "unit": "nM"}
    ]},
    {"compound": "COC[C@H]1CN(c2cc(C)c3c4c(c(=O)oc3c2C)CN(C(=O)c2cc(N)c(C(=O)NS(=O)(=O)N3CCCC3)cc2F)CC4)CCN1C", "note": "[Example 196, (R)-2-amino-5-fluoro-4-(8-(3-(methoxymethyl)-4-methylpiperazin-1-yl)-7,10-dimethyl-5-oxo-1,3,4,5-tetrahydro-2H-chromeno[3,4-c]pyridine-3-carbonyl)-N-(pyrrolidin-1-ylsulfonyl)benzamide]", "values": [
      {"measurement": "IC50", "setting": "[1]", "result": "10 to 100", "unit": "nM"},
      {"measurement": "MTHFD1/MTHFD2 IC50 ratio", "setting": "[1]", "result": "J (>30)"},
      {"measurement": "IC50", "setting": "[2]", "result": "1000 to 5000", "unit": "nM"},
      {"measurement": "IC50", "setting": "[3]", "result": "> 5000", "unit": "nM"}
    ]},
    {"compound": "CCOc1cc(C(=O)N2CCc3c(c(=O)oc4c(C)c(N5CCN(C)[C@@H](COC)C5)cc(C)c34)C2)c(F)cc1C(=O)NS(=O)(=O)N1CC[C@H](F)C1", "note": "[Example 268, 2-ethoxy-5-fluoro-N-(((S)-3-fluoropyrrolidin-1-yl)sulfonyl)-4-(8-((R)-3-(methoxymethyl)-4-methylpiperazin-1-yl)-7,10-dimethyl-5-oxo-1,3,4,5-tetrahydro-2H-chromeno[3,4-c]pyridine-3-carbonyl)benzamide]", "values": [
      {"measurement": "IC50", "setting": "[1]", "result": "1 to 10", "unit": "nM"},
      {"measurement": "MTHFD1/MTHFD2 IC50 ratio", "setting": "[1]", "result": "J (>30)"},
      {"measurement": "IC50", "setting": "[2]", "result": "100 to 1000", "unit": "nM"},
      {"measurement": "IC50", "setting": "[3]", "result": "1 to 10", "unit": "nM"}
    ]},
    {"compound": "COC[C@H]1CN(c2cc(Cl)c3c4c(c(=O)oc3c2C)CN(C(=O)c2cc(F)c(C(=O)NS(=O)(=O)N3CCCC3)cc2C)CC4)CCN1C", "note": "[Example 310, (R)-4-(10-chloro-8-(3-(methoxymethyl)-4-methylpiperazin-1-yl)-7-methyl-5-oxo-1,3,4,5-tetrahydro-2H-chromeno[3,4-c]pyridine-3-carbonyl)-2-fluoro-5-methyl-N-(pyrrolidin-1-ylsulfonyl)benzamide]", "values": [
      {"measurement": "IC50", "setting": "[1]", "result": "10 to 100", "unit": "nM"},
      {"measurement": "MTHFD1/MTHFD2 IC50 ratio", "setting": "[1]", "result": "J (>30)"},
      {"measurement": "IC50", "setting": "[2]", "result": "1000 to 5000", "unit": "nM"},
      {"measurement": "IC50", "setting": "[3]", "result": "30 to 100", "unit": "nM"}
    ]},
    {"compound": "COC[C@H]1CN(c2cc(C)c3c4c(c(=O)oc3c2C)CN(C(=O)c2cc(N(C)C)c(C(=O)NS(=O)(=O)N3CC5CC5C3)cc2F)CC4)CCN1C", "note": "(stereo partly drawn) [Example 315, N-((3-azabicyclo[3.1.0]hexan-3-yl)sulfonyl)-2-(dimethylamino)-5-fluoro-4-(8-((R)-3-(methoxymethyl)-4-methylpiperazin-1-yl)-7,10-dimethyl-5-oxo-1,3,4,5-tetrahydro-2H-chromeno[3,4-c]pyridine-3-carbonyl)benzamide]", "values": [
      {"measurement": "IC50", "setting": "[1]", "result": "1 to 10", "unit": "nM"},
      {"measurement": "MTHFD1/MTHFD2 IC50 ratio", "setting": "[1]", "result": "J (>30)"},
      {"measurement": "IC50", "setting": "[2]", "result": "100 to 1000", "unit": "nM"},
      {"measurement": "IC50", "setting": "[3]", "result": "1 to 10", "unit": "nM"}
    ]},
    {"compound": "CCOc1cc(C(=O)N2CCc3c(c(=O)oc4c(C)c(N5CCN(C)[C@@H](COC)C5)cc(C)c34)C2)c(F)cc1C(=O)NS(=O)(=O)N1CC2CC2C1", "note": "(stereo partly drawn) [Example 219, N-((3-azabicyclo[3.1.0]hexan-3-yl)sulfonyl)-2-ethoxy-5-fluoro-4-(8-((R)-3-(methoxymethyl)-4-methylpiperazin-1-yl)-7,10-dimethyl-5-oxo-1,3,4,5-tetrahydro-2H-chromeno[3,4-c]pyridine-3-carbonyl)benzamide]", "values": [
      {"measurement": "IC50", "setting": "[1]", "result": "10 to 100", "unit": "nM"},
      {"measurement": "MTHFD1/MTHFD2 IC50 ratio", "setting": "[1]", "result": "G (^ 3 to 9.0)"},
      {"measurement": "IC50", "setting": "[2]", "result": "10 to 100", "unit": "nM"},
      {"measurement": "IC50", "setting": "[3]", "result": "10 to 30", "unit": "nM"}
    ]},
    {"compound": "COC[C@H]1CN(c2cc(C)c3c4c(c(=O)oc3c2C)CN(C(=O)c2cc(OC)c(C(=O)NS(=O)(=O)N3CCCC3)cc2Cl)CC4)CCN1C", "note": "[Example 329, (R)-5-chloro-2-methoxy-4-(8-(3-(methoxymethyl)-4-methylpiperazin-1-yl)-7,10-dimethyl-5-oxo-1,3,4,5-tetrahydro-2H-chromeno[3,4-c]pyridine-3-carbonyl)-N-(pyrrolidin-1-ylsulfonyl)benzamide]", "values": [
      {"measurement": "IC50", "setting": "[1]", "result": "1 to 10", "unit": "nM"},
      {"measurement": "MTHFD1/MTHFD2 IC50 ratio", "setting": "[1]", "result": "J (>30)"},
      {"measurement": "IC50", "setting": "[2]", "result": "1000 to 5000", "unit": "nM"},
      {"measurement": "IC50", "setting": "[3]", "result": "100 to 1000", "unit": "nM"}
    ]}
  ]
}
